Several values for one entry are separate records, joined by “and”; a condition that tells them apart may be missing. Equal entries are not always repeated.
Test system: 128128-338-R-J1-PDC spheroids, viability % test/control
Assay: Anticancer human tumor 128128-338-R-J1-PDC patient-derived melanoma cell line growth inhibition [TAK]
Details: spheroids with HUVEC and MSC; for viability, T/C: stronger effect = lower value
Outline: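 Tumor cells were grown as spheroids with HUVEC and hMSC (60:25:15) and treated with targeted agents combined with TAK-243 or ipatasertib. Drugs were tested in half-log steps down from near the clinical Cmax, or from 10 microM where Cmax was unknown.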

[1] = curve of first compound, second compound 0.3 µM
[2] = curve of first compound, second compound 0.949 µM
[3] = curve of first compound, second compound 3 µM
[4] = curve of first compound, second compound 9.49 µM
[5] = curve of first compound, second compound 30 µM
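Further: spheroids exposed to compounds for 7 days.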
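Wherever viability, T/C is given: 100% = DMSO vehicle wells.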

CC(=O)Nc1cccc(-n2c(=O)n(C3CC3)c(=O)c3c(Nc4ccc(I)cc4F)n(C)c(=O)c(C)c32)c1
viability, T/C (compound 94.9 pM): 98.2% and 101% | viability, T/C (compound 0.0003 µM): 97.9% and 94.4% | viability, T/C (compound 0.000949 µM): 82.8% and 70% | viability, T/C (compound 0.003 µM): 41.4% and 25.6% | viability, T/C (compound 0.00949 µM): 5.07% and 3.1% | viability, T/C (compound 0.03 µM): 2.37% and 2.18% | IC50 (curve of compound): 2.32 nM and 1.58 nM

Cn1cnc2c(F)c(Nc3ccc(Br)cc3Cl)c(C(=O)NOCCO)cc21
viability, T/C (compound 0.00949 µM): 95.7% and 94.9% | viability, T/C (compound 0.03 µM): 75.4% and 82.6% | viability, T/C (compound 0.0949 µM): 44.2% and 50.7% | viability, T/C (compound 0.3 µM): 9.03% and 14.9% | viability, T/C (compound 0.949 µM): 3.38% and 4.34% | viability, T/C (compound 3 µM): 3.13% and 2.58% | IC50 (curve of compound): 72.1 nM and 94.6 nM

CC(C)CC(NC(=O)CNC(=O)c1cc(Cl)ccc1Cl)B1OC(=O)CC(CC(=O)O)(C(=O)O)O1 (stereo not drawn) + CC(C)NCC(C(=O)N1CCN(c2ncnc3c2C(C)CC3O)CC1)c1ccc(Cl)cc1
IC50 [1]: 8.01 nM | IC50 [2]: 7.78 nM | IC50 [3]: 5.61 nM | IC50 [4]: 4.79 nM | IC50 [5]: < 0.316 nM | viability, T/C (second compound 0.3 µM, first compound 0.000316 µM): 97.4% | viability, T/C (second compound 0.3 µM, first compound 0.001 µM): 100% | viability, T/C (second compound 0.3 µM, first compound 0.00316 µM): 102% | viability, T/C (second compound 0.3 µM, first compound 0.01 µM): 38.1% | viability, T/C (second compound 0.3 µM, first compound 0.0316 µM): 2.27% | viability, T/C (second compound 0.3 µM, first compound 0.1 µM): 0.15% | viability, T/C (second compound 0.949 µM, first compound 0.000316 µM): 98.6% | viability, T/C (second compound 0.949 µM, first compound 0.001 µM): 101% | viability, T/C (second compound 0.949 µM, first compound 0.00316 µM): 93% | viability, T/C (second compound 0.949 µM, first compound 0.01 µM): 38% | viability, T/C (second compound 0.949 µM, first compound 0.0316 µM): 1.94% | viability, T/C (second compound 0.949 µM, first compound 0.1 µM): 0.09% | viability, T/C (second compound 3 µM, first compound 0.000316 µM): 85.3% | viability, T/C (second compound 3 µM, first compound 0.001 µM): 94.1% | viability, T/C (second compound 3 µM, first compound 0.00316 µM): 82.7% | viability, T/C (second compound 3 µM, first compound 0.01 µM): 16.9% | viability, T/C (second compound 3 µM, first compound 0.0316 µM): 1.1% | viability, T/C (second compound 3 µM, first compound 0.1 µM): 0.08% | viability, T/C (second compound 9.49 µM, first compound 0.000316 µM): 71% | viability, T/C (second compound 9.49 µM, first compound 0.001 µM): 68.7% | viability, T/C (second compound 9.49 µM, first compound 0.00316 µM): 65.1% | viability, T/C (second compound 9.49 µM, first compound 0.01 µM): 23.2% | viability, T/C (second compound 9.49 µM, first compound 0.0316 µM): 0.49% | viability, T/C (second compound 9.49 µM, first compound 0.1 µM): 0.09% | viability, T/C (second compound 30 µM, first compound 0.000316 µM): 21.9% | viability, T/C (second compound 30 µM, first compound 0.001 µM): 22.4% | viability, T/C (second compound 30 µM, first compound 0.00316 µM): 23.8% | viability, T/C (second compound 30 µM, first compound 0.01 µM): 3.46% | viability, T/C (second compound 30 µM, first compound 0.0316 µM): 0.13% | viability, T/C (second compound 30 µM, first compound 0.1 µM): 0.12%

CC(C)(C)c1nc(-c2cccc(NS(=O)(=O)c3c(F)cccc3F)c2F)c(-c2ccnc(N)n2)s1
viability, T/C (compound 0.0316 µM): 61.1% and 60.1% | viability, T/C (compound 0.1 µM): 23.9% and 24% | viability, T/C (compound 0.316 µM): 4.21% and 5.44% | viability, T/C (compound 1 µM): 2.39% and 2.26% | viability, T/C (compound 3.16 µM): 2.82% and 2.69% | viability, T/C (compound 10 µM): 17.2% and 16.2% | IC50 (curve of compound): 44.7 nM and 43.6 nM

CC(=O)Nc1cccc(-n2c(=O)n(C3CC3)c(=O)c3c(Nc4ccc(I)cc4F)n(C)c(=O)c(C)c32)c1 + CC(C)NCC(C(=O)N1CCN(c2ncnc3c2C(C)CC3O)CC1)c1ccc(Cl)cc1
IC50 [1]: 1.62 nM | IC50 [2]: 1.76 nM | IC50 [3]: 1.25 nM | IC50 [4]: 0.348 nM | IC50 [5]: < 0.0949 nM | viability, T/C (second compound 0.3 µM, first compound 94.9 pM): 98.8% | viability, T/C (second compound 0.3 µM, first compound 0.0003 µM): 97.5% | viability, T/C (second compound 0.3 µM, first compound 0.000949 µM): 73.5% | viability, T/C (second compound 0.3 µM, first compound 0.003 µM): 22.7% | viability, T/C (second compound 0.3 µM, first compound 0.00949 µM): 2.28% | viability, T/C (second compound 0.3 µM, first compound 0.03 µM): 1.04% | viability, T/C (second compound 0.949 µM, first compound 94.9 pM): 100% | viability, T/C (second compound 0.949 µM, first compound 0.0003 µM): 94% | viability, T/C (second compound 0.949 µM, first compound 0.000949 µM): 77.8% | viability, T/C (second compound 0.949 µM, first compound 0.003 µM): 26.2% | viability, T/C (second compound 0.949 µM, first compound 0.00949 µM): 1.76% | viability, T/C (second compound 0.949 µM, first compound 0.03 µM): 0.37% | viability, T/C (second compound 3 µM, first compound 94.9 pM): 87.3% | viability, T/C (second compound 3 µM, first compound 0.0003 µM): 82.8% | viability, T/C (second compound 3 µM, first compound 0.000949 µM): 61.9% | viability, T/C (second compound 3 µM, first compound 0.003 µM): 12.6% | viability, T/C (second compound 3 µM, first compound 0.00949 µM): 0.36% | viability, T/C (second compound 3 µM, first compound 0.03 µM): 0.28% | viability, T/C (second compound 9.49 µM, first compound 94.9 pM): 63.9% | viability, T/C (second compound 9.49 µM, first compound 0.0003 µM): 55% | viability, T/C (second compound 9.49 µM, first compound 0.000949 µM): 16.2% | viability, T/C (second compound 9.49 µM, first compound 0.003 µM): 0.75% | viability, T/C (second compound 9.49 µM, first compound 0.00949 µM): 0.11% | viability, T/C (second compound 9.49 µM, first compound 0.03 µM): 0.09% | viability, T/C (second compound 30 µM, first compound 94.9 pM): 20.5% | viability, T/C (second compound 30 µM, first compound 0.0003 µM): 10.1% | viability, T/C (second compound 30 µM, first compound 0.000949 µM): 0.5% | viability, T/C (second compound 30 µM, first compound 0.003 µM): 0.25% | viability, T/C (second compound 30 µM, first compound 0.00949 µM): 0.1% | viability, T/C (second compound 30 µM, first compound 0.03 µM): 0.12%

CC(C)CC(NC(=O)CNC(=O)c1cc(Cl)ccc1Cl)B1OC(=O)CC(CC(=O)O)(C(=O)O)O1 (stereo not drawn)
viability, T/C (compound 0.000316 µM): 102% and 104% | viability, T/C (compound 0.001 µM): 95.7% and 102% | viability, T/C (compound 0.00316 µM): 102% and 99% | viability, T/C (compound 0.01 µM): 39.4% and 38.7% | viability, T/C (compound 0.0316 µM): 3.88% and 2.92% | viability, T/C (compound 0.1 µM): 0.22% and 0.2% | IC50 (curve of compound): 8.17 nM and 8.06 nM
